The test addresses hTDO2 in human glioblastoma A172 cells (Homo sapiens (Human), UniProt P48775). The test is described as follows: Cellular assay for TDO2 activity determination in A172 cells. The class given is cell-based. To be noted: overnight incubation, kynurenine absorbance at 480 nm. As to the method: The compounds of formula I inhibit the activity of human TDO2 in cells that constitutively express TDO2, such as A172 cells. A172 is a cell line derived from human brain glioblastoma cells. The cells are available from the American Type Culture Collection (ATCC®) as CRL-1620™.
The assay (adapted from Pilotte L et al., Proc Natl Acad Sci USA, 2012, 109(7), 2497-502) was performed in 96-well flat bottom plates seeded with human glioblastoma A172 cells, naturally expressing hTDO2 (prepared as described in Tilman et al., Mol Cancer, 2007, 17(6), 80), at a concentration of 1.25×10^4 cells/well in a final volume of 200 μL. To determine TDO, the cells were incubated overnight at 37° C. at 5% CO2 in IMDM (Invitrogen) supplemented with 2% FBS and 2% penicillin/streptomycin in the presence of the compounds of the present invention, at different concentrations.
The plates were then centrifuged 5 min at 1000 rpm, and 100 μL of the supernatant were collected in a conical plate, 30 μL of TCA 30% were added and a further centrifuged at 3000×g for 10 minutes. 100 μL of the supernatant were collected in a flat bottomed plate and 100 μL of 2% (w/v) 4-(dimethylamino)-benzaldehyde in acetic acid and incubated for 5 min at room temperature. Kynurenine concentrations were determined by measuring the absorbance at 480 nm. A standard curve was made with pure kynurenine. The TDO activity was measured as described above using ten serial concentrations of the compounds of the present invention. Data were fitted using the Prism™ software (GraphPad Software, Inc.) using standard parameters.
Sequence of hTDO2 in human glioblastoma A172 cells (P48775 whole entry): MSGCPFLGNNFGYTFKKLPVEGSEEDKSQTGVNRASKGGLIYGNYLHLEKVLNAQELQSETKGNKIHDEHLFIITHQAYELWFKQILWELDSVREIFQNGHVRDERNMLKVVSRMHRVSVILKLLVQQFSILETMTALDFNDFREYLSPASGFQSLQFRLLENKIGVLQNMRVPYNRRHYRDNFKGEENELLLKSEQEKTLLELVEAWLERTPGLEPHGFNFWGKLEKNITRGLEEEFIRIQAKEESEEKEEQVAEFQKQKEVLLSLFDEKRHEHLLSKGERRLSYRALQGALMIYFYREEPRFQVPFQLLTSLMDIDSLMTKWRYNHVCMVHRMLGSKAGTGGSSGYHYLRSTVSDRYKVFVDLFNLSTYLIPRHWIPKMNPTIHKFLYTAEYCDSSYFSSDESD
For orientation: IC50 means the midpoint of a concentration-inhibition curve. As to `O=S(=O)(c1ccc(-c2c[nH]c3cc(F)ccc23)cc1C(F)(F)F)N1CCNCC1` [Example 24, 6-fluoro-3-(4-(piperazin-1-ylsulfonyl)-3-(trifluoromethyl)-phenyl)-1H-indole], half-maximal inhibition (IC50) was put at 510 nM.
`Cc1cc(S(=O)(=O)N2CCNCC2)ccc1-c1c[nH]c2cc(F)ccc12` [Example 25, 6-fluoro-3-(2-methyl-4-(piperazin-1-ylsulfonyl)-phenyl)-1H-indole]: the IC50 was 1400 nM.
With `CN(CCC(N)=O)S(=O)(=O)c1ccc(-c2c[nH]c3cc(F)ccc23)cc1` [Example 27, 3-(4-(6-fluoro-1H-indol-3-yl)-N-methylphenylsulfonamido)-propanamide] the figure was 160 nM; with `O=S(=O)(c1ccc(-c2c[nH]c3cc(F)ccc23)cc1F)N1CCNCC1` [Example 28, 6-fluoro-3-(3-fluoro-4-(piperazin-1-ylsulfonyl)-phenyl)-1H-indole], 220 nM; with `COc1cc(-c2c[nH]c3cc(F)ccc23)ccc1S(=O)(=O)N1CCNCC1` [Example 29, 6-fluoro-3-(3-methoxy-4-(piperazin-1-ylsulfonyl)-phenyl)-1H-indole], 190 nM.
In the case of `Cc1cc(-c2c[nH]c3cc(F)ccc23)cc(S(=O)(=O)NCCN)c1` [Example 30, N-(2-aminoethyl)-3-(6-fluoro-1H-indol-3-yl)-5-methyl-benzenesulfonamide] it was 3900 nM; in that of `CS(=O)(=O)c1cccc(-c2c[nH]c3cc(F)ccc23)c1` [Example 31, 6-fluoro-3-(3-(methylsulfonyl)phenyl)-1H-indole], 740 nM; in that of `COc1ccc(-c2c[nH]c3cc(F)ccc23)cc1S(=O)(=O)NCCN` [Example 33], 910 nM.
With `N#Cc1cc(S(=O)(=O)N2CCNCC2)ccc1-c1c[nH]c2cc(F)ccc12` [Example 37, 2-(6-fluoro-1H-indol-3-yl)-5-(piperazin-1-ylsulfonyl)benzonitrile] the figure was 3700 nM; with `NCCNS(=O)(=O)c1cc(Cl)cc(-c2c[nH]c3cc(F)ccc23)c1` [Example 38, N-(2-aminoethyl)-3-chloro-5-(6-fluoro-1H-indol-3-yl)-benzenesulfonamide], 2500 nM; with `NCCNS(=O)(=O)c1cc(-c2c[nH]c3cc(F)ccc23)ccc1O` [Example 39, N-(2-aminoethyl)-5-(6-fluoro-1H-indol-3-yl)-2-hydroxy-benzenesulfonamide], 2900 nM.
Take `NC(=O)c1cc(-c2c[nH]c3cc(F)ccc23)ccc1S(=O)(=O)N1CCNCC1` [Example 41, 5-(6-fluoro-1H-indol-3-yl)-2-(piperazin-1-ylsulfonyl)benzamide]: the half-maximal inhibitory concentration (IC50) was 990 nM.
In the case of `CN1CCN(S(=O)(=O)c2ccc(-c3c[nH]c4cc(F)ccc34)cc2)CC1=O` [Example 42, 4-((4-(6-fluoro-1H-indol-3-yl)phenyl)sulfonyl)-1-methylpiperazin-2-one] it was 260 nM; in that of `NCCNS(=O)(=O)c1cc(-c2c[nH]c3cc(F)ccc23)ccc1F` [Example 43, N-(2-aminoethyl)-2-fluoro-5-(6-fluoro-1H-indol-3-yl)-benzenesulfonamide], 410 nM; in that of `NCCNS(=O)(=O)c1cc(F)cc(-c2c[nH]c3cc(F)ccc23)c1` [Example 44, N-(2-aminoethyl)-3-fluoro-5-(6-fluoro-1H-indol-3-yl)-benzenesulfonamide], 430 nM.
In the case of `O=S(=O)(c1ccc(-c2c[nH]c3cc(F)ccc23)cc1Cl)N1CCNCC1` [Example 45, 3-(3-chloro-4-(piperazin-1-ylsulfonyl)phenyl)-6-fluoro-1H-indole] it was 230 nM; in that of `O=S(=O)(NC1CCOCC1)c1ccc(-c2c[nH]c3cc(F)ccc23)cc1` [Example 46, 4-(6-fluoro-1H-indol-3-yl)-N-(tetrahydro-pyran-4-yl)-benzenesulfonamide], 220 nM.
With `CN(C)C(=O)n1cc(-c2ccc(S(=O)(=O)N3CCNCC3)cc2)c2ccc(F)cc21` [Example 47, 6-fluoro-N,N-dimethyl-3-(4-(piperazin-1-ylsulfonyl)phenyl)-1H-indole-1-carboxamide] the figure was 9600 nM; with `O=c1[nH]nc(CCNS(=O)(=O)c2ccc(-c3c[nH]c4cc(F)ccc34)cc2)o1` [Example 48, 4-(6-fluoro-1H-indol-3-yl)-N-(2-(5-oxo-4,5-dihydro-1,3,4-oxadiazol-2-yl)ethyl)benzenesulfonamide], 440 nM.
`CN(C)C(=O)CCNS(=O)(=O)c1ccc(-c2c[nH]c3cc(F)ccc23)cc1` [Example 49, 3-(4-(6-fluoro-1H-indol-3-yl)phenylsulfonamido)-N,N-dimethylpropanamide] had a concentration for half-maximal inhibition (IC50) of 210 nM. This IC50 lies about 2.1-fold lower than the previous one.
The compound `CCC(=O)n1cc(-c2ccc(S(=O)(=O)N3CCNCC3)cc2)c2ccc(F)cc21` [Example 51, 1-(6-fluoro-3-(4-(piperazin-1-ylsulfonyl)phenyl)-1H-indol-1-yl)-propan-1-one] showed an IC50 of 630 nM.
In the case of `CC(C)CC(=O)n1cc(-c2ccc(S(=O)(=O)N3CCNCC3)cc2)c2ccc(F)cc21` [Example 52, 1-(6-fluoro-3-(4-(piperazin-1-ylsulfonyl)phenyl)-1H-indol-1-yl)-3-methylbutan-1-one] it was 1700 nM; in that of `NC(=O)CCCNS(=O)(=O)c1ccc(-c2c[nH]c3cc(F)ccc23)cc1` [Example 53, 4-(4-(6-fluoro-1H-indol-3-yl)phenylsulfonamido)butanamide], 210 nM.
In the case of `CN(CCCC(N)=O)S(=O)(=O)c1ccc(-c2c[nH]c3cc(F)ccc23)cc1` [Example 54, 4-(4-(6-fluoro-1H-indol-3-yl)-N-methylphenylsulfonamido)-butanamide] it was 250 nM; in that of `O=S(=O)(N[C@@H]1CCOC1)c1ccc(-c2c[nH]c3cc(F)ccc23)cc1` [Example 55, (R)-4-(6-fluoro-1H-indol-3-yl)-N-(tetrahydrofuran-3-yl)-benzenesulfonamide], 210 nM; in that of `Cc1ccc(-c2c[nH]c3cc(F)ccc23)cc1S(=O)(=O)NCCN` [Example 56, N-(2-aminoethyl)-5-(6-fluoro-1H-indol-3-yl)-2-methylbenzenesulfonamide], 670 nM.
In the case of `CNC(=O)c1cc(-c2c[nH]c3cc(F)ccc23)ccc1S(=O)(=O)N1CCNCC1` [Example 57, 5-(6-fluoro-1H-indol-3-yl)-N-methyl-2-(piperazin-1-ylsulfonyl)-benzamide] it was 7100 nM; in that of `Cc1noc(CCNS(=O)(=O)c2ccc(-c3c[nH]c4cc(F)ccc34)cc2)n1` [Example 59, 4-(6-fluoro-1H-indol-3-yl)-N-(2-(3-methyl-1,2,4-oxadiazol-5-yl)-ethyl)benzenesulfonamide], 360 nM; in that of `CNC(=O)n1cc(-c2ccc(S(=O)(=O)N3CCNCC3)cc2)c2ccc(F)cc21` [Example 60, 6-fluoro-N-methyl-3-(4-(piperazin-1-ylsulfonyl)phenyl)-1H-indole-1-carboxamide], 9100 nM.
`COc1cc(-c2c[nH]c3cc(F)ccc23)cc(S(=O)(=O)NCCN)c1` [Example 61, N-(2-aminoethyl)-3-(6-fluoro-1H-indol-3-yl)-5-methoxybenzene-sulfonamide] returned an IC50 of 4300 nM.
Turning to `NCCNS(=O)(=O)c1ccc(F)c(-c2c[nH]c3cc(F)ccc23)c1` [Example 62, N-(2-aminoethyl)-4-fluoro-3-(6-fluoro-1H-indol-3-yl)benzene-sulfonamide], it took 3500 nM to reach half-maximal inhibition (IC50).
